Experimental data from patent US20230116114A1, “COMPOUNDS AND COMPOSITIONS FOR TREATING CNS DISORDERS” (Blue Oak Pharmaceuticals, Inc., priority 2020, published 2023).
Where a name gives a salt, the structure may show the parent alone.

System: mice
Assay: SmartCube in vivo neuropharmacological behavioral assay
Settings: for minimal effective dose: Mus musculus, ip, 0.25 h, dose having 50% or more total activity in SmartCube, i.p., read-out: MED (minimal effective dose); for AD: antidepressant (percent probability) / AG: analgesic (percent probability) / AP: antipsychotic (percent probability) / AX: anxiolytic (percent probability) / CE: cognitive enhancer (percent probability) / HA: hallucinogenic (percent probability) / MS: mood stabilizer (percent probability) / PS (percent probability) / SD: sedative hypnotic (percent probability) / SE: side effects (percent probability) / UN: uncharacterized CNS activity (percent probability) / XG: anxiogenic (percent probability): SmartCube, i.p. 15 min before test, result at the MED
Experimental: The compounds were evaluated for their CNS related properties (e.g., the treatment, prevention or diagnosis of CNS or CNS-related disorders and/or amelioration of symptoms) using neuropharmacological screening methods described in S. L. Roberts et al., Front. Neurosci. 2011, 5:103 (hereinafter referred to as “Roberts,” the contents of which are incorporated herein by reference in their entirety).
According to Roberts, intact systems are useful in detecting improvement in disease-relevant endpoints, because psychiatric diseases generally result from disorders of cell-cell communication or circuitry. The endpoints are typically behavioral in nature, often requiring human observation and interpretation. In order to test multiple compounds for behavioral effects relevant to neurological and psychiatric diseases and disorders, PsychoGenics, Inc. (Paramus, N.J. “PGI”) developed SmartCube®, an automated system in which behaviors of compound-treated mice are captured by digital video and analyzed with computer algorithms to facilitate testing of multiple compounds for behavioral effects relevant to psychiatric disease. (D. Brunner et al., Drug Discov. Today 2002, 7:S107-S112; Alexandrov et al., Eur. J. Pharmacol. 2015, 753:127-134; the contents of each of which are incorporated herein by reference in their entirety).
The SmartCube® system is described in Example 2.2 of U.S. Pat. No. 9,758,529 and Example 289 of WIPO Publication No. WO2018/023070, the contents of each of which are incorporated herein by reference in their entirety.
According to the present disclosure, compounds identified may be evaluated using the SmartCube® system. The results of such analysis correlate certain patterns or combinations of behaviors to CNS effects along a percent probability scale of 0-100 where zero (0) reflects the limit of quantitation (LOQ).
The compounds of the present disclosure were evaluated for their CNS related properties (e.g., the treatment, prevention or diagnosis of CNS or CNS-related disorders and/or amelioration of symptoms) using neuropharmacological screening methods described in S. L. Roberts et al., Front. Neurosci. 2011, 5:103 (hereinafter referred to as “Roberts,” the contents of which are incorporated herein by reference in their entirety).
The SmartCube® system described herein was utilized to compare the behavioral signature of a test compound to a database of behavioral signatures obtained using a large set of diverse reference compounds (including but not limited to antipsychotics, anxiolytics, antidepressants and bipolar disorder medicine), thereby predicting the neuropharmacological effects of a test compound by similarity to major classes of compounds. It produces an activity signature indicating the probability that the activity of the test compound at the administered dose matches a given class of neuropharmacological agents. The test compound is simultaneously compared against multiple classes of agents; thus, a separate probability is generated for each behavioral effect measured (such as but not limited to anxiolytic activity and analgesic activity).
The compounds of the present disclosure were dissolved in a mixture of Pharmasolve™ (N-methyl-2-pyrrolidone (NMP)) and were injected i.p. 15 min. before the behavioral test. For each compound, injections were administered at different dose levels (e.g., 0.3, 1, 3, 10 and 30 mg per kg (mpk)). A compound's minimal effective dose (MED; see Table 3) is a measure of the compound's potency. The MED was defined as the dose (in mpk) having 50% or more total activity in SmartCube®. For each behavioral effect measured, results at the MED are presented. CNS activities of the compounds were recorded (see Table 2). In Table 1, a key to the percent probabilities (probability ×100) for each behavioral effect (“X”) are defined provided, where LOQ is the limit of quantification.

| Structure (SMILES) | minimal effective dose [mg/kg] | AD: antidepressant (percent probability) | AG: analgesic (percent probability) | AP: antipsychotic (percent probability) | AX: anxiolytic (percent probability) | CE: cognitive enhancer (percent probability) | HA: hallucinogenic (percent probability) | MS: mood stabilizer (percent probability) | PS (percent probability) | SD: sedative hypnotic (percent probability) | SE: side effects (percent probability) | UN: uncharacterized CNS activity (percent probability) | XG: anxiogenic (percent probability) |
| --- | --- | --- | --- | --- | --- | --- | --- | --- | --- | --- | --- | --- | --- |
| CC(C)N1C2CC[C@H](C)C1c1ccccc12 (stereo in doubt) [Compound 33, 9-Methyl-12-(propan-2-yl)-12-azatricyclo[6.3.1.0^2,7]dodeca-2,4,6-triene hydrochloride] | 1 to 10 | ++++ (50% ≤ X < 100%) | + (LOQ ≤ X < 5%) | + (LOQ ≤ X < 5%) | + (LOQ ≤ X < 5%) | + (LOQ ≤ X < 5%) | + (LOQ ≤ X < 5%) | + (LOQ ≤ X < 5%) | + (LOQ ≤ X < 5%) | + (LOQ ≤ X < 5%) | + (LOQ ≤ X < 5%) | + (LOQ ≤ X < 5%) | + (LOQ ≤ X < 5%) |
| COCC(C)N1C2CCCC1c1ccccc12 (stereo not shown) [Compound 18, 12-(1-Methoxypropan-2-yl)-12-azatricyclo[6.3.1.0^2,7]dodeca-2,4,6-triene] | 10 to 30 | ++++ (50% ≤ X < 100%) | + (LOQ ≤ X < 5%) | + (LOQ ≤ X < 5%) | ++ (5% ≤ X < 25%) | + (LOQ ≤ X < 5%) | + (LOQ ≤ X < 5%) | + (LOQ ≤ X < 5%) | + (LOQ ≤ X < 5%) | + (LOQ ≤ X < 5%) | + (LOQ ≤ X < 5%) | + (LOQ ≤ X < 5%) | + (LOQ ≤ X < 5%) |
| CO[C@H]1CC[C@H]2c3ccccc3[C@@H]1N2C(C)C (stereo in doubt) [Compound 28, 9-methoxy-12-(propan-2-yl)-12-azatricyclo[6.3.1.0^2,7]dodeca-2,4,6-triene hydrochloride] | 10 to 30 | ++ (5% ≤ X < 25%) | ++ (5% ≤ X < 25%) | + (LOQ ≤ X < 5%) | ++ (5% ≤ X < 25%) | + (LOQ ≤ X < 5%) | + (LOQ ≤ X < 5%) | + (LOQ ≤ X < 5%) | ++ (5% ≤ X < 25%) | + (LOQ ≤ X < 5%) | + (LOQ ≤ X < 5%) | +++ (25% ≤ X < 50%) | + (LOQ ≤ X < 5%) |
| CC[C@@H](C)N1C2CCCC1c1ccccc12 [Compound 25, 12-[(2R)-Butan-2-yl]-12-azatricyclo[6.3.1.0^2,7]dodeca-2,4,6-triene hydrochloride] | 1 to 10 | ++++ (50% ≤ X < 100%) | + (LOQ ≤ X < 5%) | + (LOQ ≤ X < 5%) | + (LOQ ≤ X < 5%) | + (LOQ ≤ X < 5%) | + (LOQ ≤ X < 5%) | + (LOQ ≤ X < 5%) | ++ (5% ≤ X < 25%) | + (LOQ ≤ X < 5%) | + (LOQ ≤ X < 5%) | + (LOQ ≤ X < 5%) | + (LOQ ≤ X < 5%) |
| CN1C2CCCC1c1ccccc12 [Compound 3, 12-Methyl-12-azatricyclo[6.3.1.0^2,7]dodeca-2,4,6-triene hydrochloride] | 10 to 30 | +++ (25% ≤ X < 50%) | ++ (5% ≤ X < 25%) | + (LOQ ≤ X < 5%) | ++ (5% ≤ X < 25%) | + (LOQ ≤ X < 5%) | + (LOQ ≤ X < 5%) | + (LOQ ≤ X < 5%) | + (LOQ ≤ X < 5%) | ++ (5% ≤ X < 25%) | ++ (5% ≤ X < 25%) | ++ (5% ≤ X < 25%) | + (LOQ ≤ X < 5%) |
| FC1CCC2NC1c1ccccc12 (stereo not shown) [Compound 30, 9-Fluoro-12-azatricyclo[6.3.1.0^2,7]dodeca-2,4,6-triene hydrochloride] | > 30 | + (LOQ ≤ X < 5%) | + (LOQ ≤ X < 5%) | + (LOQ ≤ X < 5%) | ++ (5% ≤ X < 25%) | + (LOQ ≤ X < 5%) | + (LOQ ≤ X < 5%) | + (LOQ ≤ X < 5%) | + (LOQ ≤ X < 5%) | + (LOQ ≤ X < 5%) | + (LOQ ≤ X < 5%) | + (LOQ ≤ X < 5%) | + (LOQ ≤ X < 5%) |
| c1ccc2c(c1)C1CCCC2N1C1CCC1 [Compound 10, 12-Cyclobutyl-12-azatricyclo[6.3.1.0^2,7]dodeca-2,4,6-triene hydrochloride] | 1 to 10 | ++++ (50% ≤ X < 100%) | ++ (5% ≤ X < 25%) | + (LOQ ≤ X < 5%) | ++ (5% ≤ X < 25%) | + (LOQ ≤ X < 5%) | ++ (5% ≤ X < 25%) | + (LOQ ≤ X < 5%) | ++ (5% ≤ X < 25%) | + (LOQ ≤ X < 5%) | + (LOQ ≤ X < 5%) | + (LOQ ≤ X < 5%) | + (LOQ ≤ X < 5%) |
